These results are taken from paper PMC12006171, “Marsupial cathelicidins: characterization, antimicrobial activity and evolution in this unique mammalian lineage” (Frontiers in Immunology, 2025).

Holding throughout (type): cell-based
Experiment [1] deals with Escherichia coli ATCC 25922. Put plainly: microbe, parasite or virus in culture. Conditions: ATCC 25922. In a few lines: (§1)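 Each isolate was exposed to twofold peptide dilutions (final 64-0.125μg/mL) in Mueller Hinton broth, optionally supplemented with calcium and magnesium or 10% lysed horse blood. The MIC was taken as the lowest concentration lacking visible growth after 20–24 hours at 35°C.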

Experiment [2] relates to Escherichia coli clinical isolate - animal. Kind of experiment: microbe, parasite or virus in culture. To be noted: clinical isolate - animal. In a few lines:
as §1

Experiment [3] has as its system Staphylococcus aureus ATCC 29213. Put plainly: microbe, parasite or virus in culture. Conditions: ATCC 29213. In a few lines:
as §1

Experiment [4] relates to Pseudomonas aeruginosa clinical isolate - animal. Kind of experiment: microbe, parasite or virus in culture. To be noted: clinical isolate - animal. In a few lines:
as §1

The test system of experiment [5] is Pseudomonas aeruginosa ATCC 27853. Put plainly: microbe, parasite or virus in culture. Conditions: ATCC 27853. In a few lines: as §1
For experiment [6], the system named is Staphylococcus aureus clinical isolate – animal, methicillin-resistant (MRSA). Conditions: clinical isolate – animal, methicillin-resistant. How it is done: (§2) Antimicrobial testing of 78 cathelicidin MPs was performed in two phases as outlined in Figure 1 . In phase I, 40 peptides (27 extant and 13 ancestral) were selected for testing based on rank (outlined above) and similarity to published marsupial cathelicidins with known antimicrobial activity ([33], [41]–[43]). These peptides were tested against nine bacteria (Staphylococcus aureus ATCC 29213 and clinical isolate, Escherichia coli ATCC 25922 and clinical isolate, Pseudomonas aeruginosa ATCC 27853 and clinical isolate, Streptococcus agalactiae ATCC 12386 and clinical isolate, Streptococcus pneumoniae ATCC 49619) and three fungi (Candida krusei ATCC 6258, Candida parapsilosis ATCC 22019, and Candida albicans clinical isolate). Details regarding these strains are available in Supplementary Table 4 . The antimicrobial activity of cathelicidins was determined as the minimum inhibitory concentration (MIC), which was the lowest concentration of cathelicidin that prevented visible bacterial or fungal growth, relative to the negative control. […] Minimum bactericidal concentration (MBC) and/or minimum fungicidal concentration (MFC) was conducted to determine microbicidal versus static action. Activity against S. aureus ATCC, E. coli ATCC, and Pseudomonas aeruginosa ATCC 27853 was examined in the presence of divalent cations to determine the impact of inhibitors.
(§3) Antimicrobial activity was determined using a broth microdilution susceptibility assay in 96 well polypropylene plates according to Clinical Laboratory Standards Institute guidelines M07-A and M26A as described previously ([33], [42], [43]). The bacterial and fungal isolates from humans and animals used in this study are outlined in Supplementary Table 4 . Only yeasts were included in the panel of fungi as they have been used in the susceptibility testing of eutherian ([3], [81]–[83]) and other marsupial cathelicidins previously ([33], [42], [43]). Cathelicidin mature peptides were solubilized in DMSO and serially diluted in duplicate from 128-0.25μg/mL in a final volume of 100µL. For bacteria, cathelicidins were diluted in Mueller Hinton Broth (MHB) with or without 10% lysed horse blood, and with (MH II B) or without (MHB) calcium and magnesium cations. For fungi, cathelicidins were diluted in Roswell Park Memorial Institute medium (RPMI)-1640 MOPS. Ampicillin or tetracycline were included as a positive control for Gram-positive and -negative bacteria respectively, while amphotericin B was used for fungi. A media-only negative control and growth control (no cathelicidin) were also included on each plate. Bacteria were sub-cultured on Muller Hinton agar (MHA) or sheep blood agar (BA), and fungi on Sabouraud dextrose agar (SAB), 20–24 hours prior to the test. Colonies were suspended in saline, the concentration adjusted to a 0.5 McFarland standard, and then diluted in media to a concentration of 1.0 x 10^6 cells/mL. Then, 100μL was added to each well of the cathelicidin dilution plate, giving a final inoculum density of 5 x 10^5 CFU/mL and cathelicidin concentration of 64-0.125μg/mL. Colony counts were performed on MHA/BA/SAB to confirm inoculum density. All plates were incubated at 35°C for 20–24 hours, depending on the strain.
(§4) Colonies were counted and compared to the colony count of the starting inoculum.

Experiment [7] deals with Staphylococcus aureus clinical isolate – animal, penicillin-resistant (PRSA). To be noted: clinical isolate – animal, penicillin-resistant (PRSA). The procedure: as §2, §3, §4
The subject of experiment [8] is Candida parapsilosis ATCC 22019. Kind of experiment: microbe, parasite or virus in culture. Conditions: ATCC 22019; for MIC: read-out: MIC C. parapsilosis ATCC. The procedure, abridged:
(§5)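 Endpoint is visible-growth inhibition (MIC) after 35°C, 20–24 h incubation. Yeast medium was RPMI-1640 MOPS; bacterial medium was Mueller Hinton broth, with or without divalent cations and lysed horse blood. Final peptide range 64-0.125μg/mL.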

In another experiment the test system is Candida krusei ATCC 6258. Put plainly: microbe, parasite or virus in culture. To be noted: ATCC 6258. The procedure, abridged: as §5
Experiment [9] has as its system Streptococcus pneumoniae ATCC 49619. Put plainly: microbe, parasite or virus in culture. Conditions: ATCC 49619; read-out: MIC S. pneumoniae ATCC. The procedure, abridged: as §5
Experiment [10] relates to Candida albicans Clinical isolate - human. Put plainly: microbe, parasite or virus in culture. To be noted: Clinical isolate - human. The procedure, abridged:
as §5

Experiment [11] deals with Streptococcus agalactiae ATCC 12386. Kind of experiment: microbe, parasite or virus in culture. Conditions: ATCC 12386; read-out: MIC S. agalactiae ATCC. The procedure, abridged: as §5
Experiment [12] concerns Streptococcus agalactiae Clinical isolate - animal. Kind of experiment: microbe, parasite or virus in culture. Conditions: clinical isolate - animal. In a few lines:
as §5

The subject of experiment [13] is Staphylococcus aureus clinical isolate - animal. Put plainly: microbe, parasite or virus in culture. Conditions: clinical isolate - animal; read-out: MIC S. aureus. The procedure, abridged: as §1
Where [14] appears, read: read-out: MIC P. aeruginosa ATCC.

Values after ≈ are worked out from the molar mass of the structure shown. Read-outs that look alike come from different tables or passages of the source. Where a SMILES comes first, the peptide text is derived from it.

On to `CC[C@H](C)[C@H](NC(=O)CNC(=O)[C@H](C)NC(=O)[C@H](CC(C)C)NC(=O)[C@@H](NC(=O)[C@H](CCCNC(=N)N)NC(=O)[C@@H](NC(=O)[C@H](CCCNC(=N)N)NC(=O)[C@@H](N)CCCCN)[C@@H](C)CC)[C@@H](C)CC)C(=O)N[C@@H](Cc1c[nH]c2ccccc12)C(=O)N[C@@H](CC(=O)O)C(=O)N[C@@H](CCCNC(=N)N)C(=O)N[C@@H](CC(C)C)C(=O)N[C@@H](CCCCN)C(=O)N[C@@H](CC(N)=O)C(=O)N[C@@H](CC(C)C)C(=O)NCC(=O)N[C@@H](CC(N)=O)C(=O)N[C@@H](CCCNC(=N)N)C(=O)N[C@H](C(=O)N[C@@H](CCCCN)C(=O)N[C@@H](CC(N)=O)C(=O)N[C@@H](CCCNC(=N)N)C(=O)N[C@@H](CC(C)C)C(=O)N[C@@H](CCCNC(=N)N)C(=O)N[C@@H](CC(=O)O)C(=O)N[C@@H](Cc1ccccc1)C(=O)N[C@@H](Cc1ccccc1)C(=O)N[C@@H](CO)C(=O)O)[C@@H](C)CC` [AnstCath5] (H-KRIRILAGIWDRLKNLGNRIKNRLRDFFS-OH), for which the “MBC E. coli ATCC” value in experiment [1] amounted to 8.9 µM (≈ 31.8 µg/mL). Besides, the MIC worked out at 4.4 µM (≈ 15.7 µg/mL) in [1] (read-out: MIC E. coli ATCC); 4.4 µM in experiment [1] (read-out: MIC in the presence of cations E. coli ATCC); 8.9 µM (≈ 31.8 µg/mL) in experiment [2]; 4.4 µM (≈ 15.7 µg/mL) in experiment [3] (read-out: MIC S. aureus ATCC); 4.4 µM in [3] (read-out: MIC in the presence of cations S. aureus ATCC); 8.9 µM (≈ 31.8 µg/mL) in experiment [4] (read-out: MIC P. aeruginosa). Moreover, the MIC is recorded as 17.9 µM in [4] (read-out: MIC in the presence of cations P. aeruginosa); over 17.9 µM in experiment [5] (setting [14]); 13.5 µM (≈ 48.2 µg/mL) in experiment [8]; over 17.9 µM in experiment [9]; over 17.9 µM in experiment [11]. Also, the “MBC E. coli” value in [2] turned out to be 17.9 µM (≈ 63.9 µg/mL). In addition, the “MIC in the presence of cations E. coli” value in experiment [2] came to 8.9 µM. Moreover, the “MBC S. aureus ATCC” value in [3] was 8.9 µM (≈ 31.8 µg/mL). Moreover, in experiment [4], the “MBC P. aeruginosa” value was found to be 17.9 µM (≈ 63.9 µg/mL). Also, the “MBC MRSA” value in experiment [6] stood at 8.9 µM (≈ 31.8 µg/mL). Also, the “MIC MRSA” value in experiment [6] came out at 4.4 µM (≈ 15.7 µg/mL). This compound returned an MBC PRSA in experiment [7] of 4.4 µM (≈ 15.7 µg/mL). The same compound registered an MIC PRSA in [7] of 4.4 µM (≈ 15.7 µg/mL). Moreover, the “MFC C. parapsilosis ATCC” value in experiment [8] is over 27.1 µM. The same compound displayed an MFC C. krusei ATCC with Candida krusei ATCC 6258 of 13.5 µM (≈ 48.2 µg/mL). Further, in the experiment with Candida krusei ATCC 6258, the MIC C. krusei ATCC came out at 13.5 µM (≈ 48.2 µg/mL). In experiment [10], this compound showed an MFC C. albicans of over 27.1 µM. This compound yielded an MIC C. albicans in experiment [10] of 27.1 µM (≈ 96.8 µg/mL). Also, the MBC S. agalactiae in experiment [12] stood at 8.9 µM (≈ 31.8 µg/mL). The compound further had an MIC S. agalactiae in [12] of 8.9 µM (≈ 31.8 µg/mL).
As for `CC[C@H](C)[C@H](NC(=O)[C@H](CCCCN)NC(=O)[C@H](Cc1ccccc1)NC(=O)[C@H](CC(N)=O)NC(=O)[C@H](CCCCN)NC(=O)[C@H](CC(C)C)NC(=O)[C@H](CCCNC(=N)N)NC(=O)[C@H](CCCCN)NC(=O)[C@H](CCCCN)NC(=O)[C@@H](NC(=O)[C@H](CCC(=O)O)NC(=O)[C@H](CC(=O)O)NC(=O)CNC(=O)[C@H](Cc1ccccc1)NC(=O)[C@H](CCCCN)NC(=O)[C@H](CCCCN)NC(=O)[C@H](CC(C)C)NC(=O)[C@H](CCCCN)NC(=O)[C@H](CCCCN)NC(=O)[C@H](CCCCN)NC(=O)[C@H](CC(C)C)NC(=O)[C@H](Cc1c[nH]c2ccccc12)NC(=O)[C@H](CCCNC(=N)N)NC(=O)[C@H](Cc1ccccc1)NC(=O)CNC(=O)CNC(=O)[C@H](CCCNC(=N)N)NC(=O)[C@@H](N)CCCCN)[C@@H](C)CC)C(=O)NCC(=O)N[C@@H](Cc1ccccc1)C(=O)N[C@@H](CC(C)C)C(=O)N[C@H](C(=O)N1CCC[C@H]1C(=O)N[C@@H](CC(C)C)C(=O)O)[C@@H](C)CC` [MAP13] (H-KRGGFRWLKKKLKKFGDEIKKRLKNFKIGFLIPL-OH), in [1], the “MBC E. coli ATCC” value is 7.7 (7.7)^7.7 µM. Also, the “MIC E. coli ATCC” value in [1] is listed as 7.7 (7.7)^7.7 µM. For the same compound, the “MIC in the presence of cations E. coli ATCC” value in experiment [1] is 7.7 (7.7)^7.7 µM. The MIC in experiment [13] is listed as over 15.4 µM; in experiment [3] (read-out: MIC S. aureus ATCC), over 15.4 µM; in experiment [5] (setting [14]), 7.7 µM (≈ 31.8 µg/mL); in [5] (read-out: MIC in the presence of cations P. aeruginosa ATCC) it was 15.4 µM; in experiment [8] it was 7.7 µM (≈ 31.8 µg/mL); in the experiment on Candida krusei ATCC 6258 (read-out: MIC C. krusei ATCC) it was over 15.4 µM. The MIC in experiment [9], in [10] (read-out: MIC C. albicans), in experiment [11] and in [12] (read-out: MIC S. agalactiae) was over 15.4 µM throughout. The “MBC E. coli” value in experiment [2] is on record as 7.7 (7.7)^7.7 µM. Besides, the “MIC E. coli” value in experiment [2] is listed as 7.7 (7.7)^7.7 µM. The “MIC in the presence of cations E. coli” value in experiment [2] is 7.7 (7.7)^7.7 µM. In addition, the “MBC P. aeruginosa” value in [4] is reported as 15.4 (15.4)^15.4 µM. In addition, the “MIC P. aeruginosa” value in experiment [4] is reported as 15.4 (15.4)^15.4 µM. Moreover, the “MIC in the presence of cations P. aeruginosa” value in experiment [4] was 15.4 (15.4)^15.4 µM. For the same compound, the “MBC P. aeruginosa ATCC” value in experiment [5] was determined as 15.4 µM (≈ 63.6 µg/mL). The “MFC C. parapsilosis ATCC” value in experiment [8] is over 15.4 µM.
